Patent publication US12173020B2, “New-type oxazolidinone compounds and preparation method therefor” (priority 2019, dated 2024)

How the values were obtained:
[1] = test system: methicillin-resistant Staphylococcus aureus (MRSA); test: agar dilution method, inhibitory effect on MRSA; format: cell-based; details: for MIC50: Staphylococcus aureus, read-out: Minimum inhibitory concentration (MIC50, μg/ml) MRSA
From the text: (§1) In order to determine the antibacterial activity of these new oxazolidinone-based compounds, an agar dilution method was used to test the inhibitory effect on methicillin-resistant Staphylococcus aureus (MRSA) and vancomycin-resistant Enterococcus (VRE). The bacteria inhibition effect was expressed as minimum inhibitory concentration (MIC50, μg/ml) The test results are shown in the following table.

[2] = test system: vancomycin-resistant Enterococcus (VRE); test: agar dilution method, inhibitory effect on VRE; format: cell-based; details: for MIC50: Enterococcus, read-out: Minimum inhibitory concentration (MIC50, μg/ml) VRE
From the text: as §1

Structure (SMILES) | MIC50 [1] | MIC50 [2] | Minimum inhibitory concentration (MIC50, μg/ml) MRSA [1] | Minimum inhibitory concentration (MIC50, μg/ml) VRE [2]
Cn1nnc(-c2ccc(-c3ccc(N4C[C@H](C(O)F)OC4=O)cc3F)cn2)n1.O=P(O)(O)O (stereo partly drawn) [compound 91, (R)-3-(3-fluoro-4-(6-(2-methyl-2H-tetrazol-5-yl)pyridin-3-yl)phenyl)-5-(hydroxyfluoromethyl) oxazolidin-2-one phosphate] | 1.3 µg/mL | 1.3 µg/mL | – | –
Cn1nnc(-c2ccc(-c3ccc(N4C[C@H](COP(=O)(O)O)OC4=O)cc3F)cn2)n1 [Tedizolid phosphate, reference compound] | 2 µg/mL | 2 µg/mL | – | –
CCn1nnc(-c2ccc(-c3ccc(N4C[C@@H](CO)OC4=O)cc3F)cn2)n1.O=P(O)(O)O [compound 80, (S)-3-(3-fluoro-4-(6-(2-ethyl-2H-tetrazol-5-yl)pyridin-3-yl)phenyl)-5-(hydroxymethyl) oxazolidin-2-one phosphate] | 1.9 µg/mL | 1.9 µg/mL | – | –
Cn1nnc(-c2ccc(-c3ccc(N4C[C@@H](C(OP(=O)(O)O)C(F)F)OC4=O)cc3F)cn2)n1 (stereo partly drawn) [compound 128, (S)-3-(3-fluoro-4-(6-(2-methyl-2H-tetrazol-5-yl)pyridin-3-yl)phenyl)-5-(1-hydroxy-2-difluoroethyl) oxazolidin-2-one phosphate] | – | – | 0.5 µg/mL | 0.5 µg/mL
CCn1nnc(-c2ccc(-c3ccc(N4C[C@H](CO)OC4=O)cc3F)cn2)n1.O=P(O)(O)O [compound 79, (R)-3-(3-fluoro-4-(6-(2-ethyl-2H-tetrazol-5-yl)pyridin-3-yl)phenyl)-5-(hydroxymethyl) oxazolidin-2-one phosphate] | 1.8 µg/mL | 1.5 µg/mL | – | –
CCCn1nnc(-c2ccc(-c3ccc(N4C[C@@H](C(O)C(F)F)OC4=O)cc3F)cn2)n1.O=P(O)(O)O (stereo partly drawn) [compound 140, (S)-3-(3-fluoro-4-(6-(2-propyl-2H-tetrazol-5-yl)pyridin-3-yl)phenyl)-5-(1-hydroxy-2-difluoroethyl) oxazolidin-2-one phosphate] | – | – | 0.4 µg/mL | 0.4 µg/mL
C=Cn1nnc(-c2ccc(-c3ccc(N4C[C@@H](C(OP(=O)(O)O)C(F)(F)F)OC4=O)cc3F)cn2)n1 (stereo partly drawn) [compound 120, (S)-3-(3-fluoro-4-(6-(2-vinyl-2H-tetrazol-5-yl)pyridin-3-yl)phenyl)-5-(1-hydroxy-2-trifluoroethyl) oxazolidin-2-one phosphate] | – | – | 0.2 µg/mL | 0.2 µg/mL
Cn1nnc(-c2ccc(-c3ccc(N4C[C@H](C(O)C(F)(F)F)OC4=O)cc3F)cn2)n1.O=P(O)(O)O (stereo partly drawn) [compound 93, (R)-3-(3-fluoro-4-(6-(2-methyl-2H-tetrazol-5-yl)pyridin-3-yl)phenyl)-5-(1-hydroxy-2-trifluoroethyl) oxazolidin-2-one phosphate] | – | – | 0.7 µg/mL | 0.7 µg/mL
CCn1nnc(-c2ccc(-c3ccc(N4C[C@H](C(C)O)OC4=O)cc3F)cn2)n1.O=P(O)(O)O (stereo partly drawn) [compound 97, (R)-3-(3-fluoro-4-(6-(2-ethyl-2H-tetrazol-5-yl)pyridin-3-yl)phenyl)-5-(1-hydroxyethyl) oxazolidin-2-one phosphate] | 1.1 µg/mL | 1.1 µg/mL | – | –
CCCn1nnc(-c2ccc(-c3ccc(N4C[C@H](C(O)C(F)(F)F)OC4=O)cc3F)cn2)n1.O=P(O)(O)O (stereo partly drawn) [compound 103, (R)-3-(3-fluoro-4-(6-(2-propyl-2H-tetrazol-5-yl)pyridin-3-yl)phenyl)-5-(1-hydroxy-2-trifluoroethyl) oxazolidin-2-one phosphate] | – | – | 0.7 µg/mL | 0.7 µg/mL

Further molecules by falling MIC50 [1], results first:

MIC50 [1] | MIC50 [2] | Minimum inhibitory concentration (MIC50, μg/ml) MRSA [1] | Minimum inhibitory concentration (MIC50, μg/ml) VRE [2] | Structure (SMILES)
0.9 µg/mL | 0.9 µg/mL | – | – | Cn1nnc(-c2ccc(-c3ccc(N4C[C@@H](C(O)F)OC4=O)cc3F)cn2)n1.O=P(O)(O)O (stereo partly drawn) [compound 92, (S)-3-(3-fluoro-4-(6-(2-methyl-2H-tetrazol-5-yl)pyridin-3-yl)phenyl)-5-(hydroxyfluoromethyl) oxazolidin-2-one phosphate]
0.8 µg/mL | 0.8 µg/mL | – | – | CCCn1nnc(-c2ccc(-c3ccc(N4C[C@H](C(O)CC)OC4=O)cc3F)cn2)n1.O=P(O)(O)O (stereo partly drawn) [compound 107, (R)-3-(3-fluoro-4-(6-(2-propyl-2H-tetrazol-5-yl)pyridin-3-yl)phenyl)-5-(1-hydroxypropyl) oxazolidin-2-one phosphate]
0.8 µg/mL | 0.7 µg/mL | – | – | O=C1O[C@@H](CO)CN1c1ccc(-c2ccc(-c3nnn(C4CC4)n3)nc2)c(F)c1.O=P(O)(O)O [compound 83, (R)-3-(3-fluoro-4-(6-(2-cyclopropyl-2H-tetrazol-5-yl)pyridin-3-yl)phenyl)-5-(hydroxymethyl) oxazolidin-2-one phosphate]
0.5 µg/mL | 0.4 µg/mL | – | – | CCCn1nnc(-c2ccc(-c3ccc(N4C[C@@H](C(O)CC)OC4=O)cc3F)cn2)n1.O=P(O)(O)O (stereo partly drawn) [compound 108, (S)-3-(3-fluoro-4-(6-(2-propyl-2H-tetrazol-5-yl)pyridin-3-yl)phenyl)-5-(1-hydroxypropyl) oxazolidin-2-one phosphate]
0.5 µg/mL | 0.3 µg/mL | – | – | Cn1nnc(-c2ccc(-c3ccc(N4C[C@H](C(O)CF)OC4=O)cc3F)cn2)n1.O=P(O)(O)O (stereo partly drawn) [compound 129, (R)-3-(3-fluoro-4-(6-(2-methyl-2H-tetrazol-5-yl)pyridin-3-yl)phenyl)-5-(1-hydroxy-2-fluoroethyl) oxazolidin-2-one phosphate]
0.4 µg/mL | 0.2 µg/mL | – | – | CCn1nnc(-c2ccc(-c3ccc(N4C[C@@H](C(O)CF)OC4=O)cc3F)cn2)n1.O=P(O)(O)O (stereo partly drawn) [compound 136, (S)-3-(3-fluoro-4-(6-(2-ethyl-2H-tetrazol-5-yl)pyridin-3-yl)phenyl)-5-(1-hydroxy-2-fluoroethyl) oxazolidin-2-one phosphate]
0.4 µg/mL | 0.4 µg/mL | – | – | CCn1nnc(-c2ccc(-c3ccc(N4C[C@H](C(O)F)OC4=O)cc3F)cn2)n1.O=P(O)(O)O (stereo partly drawn) [compound 101, (R)-3-(3-fluoro-4-(6-(2-ethyl-2H-tetrazol-5-yl)pyridin-3-yl)phenyl)-5-(hydroxyfluoromethyl) oxazolidin-2-one phosphate]
0.3 µg/mL | 0.3 µg/mL | – | – | C=Cn1nnc(-c2ccc(-c3ccc(N4C[C@H](C(O)F)OC4=O)cc3F)cn2)n1.O=P(O)(O)O (stereo partly drawn) [compound 125, (R)-3-(3-fluoro-4-(6-(2-vinyl-2H-tetrazol-5-yl)pyridin-3-yl)phenyl)-5-(hydroxyfluoromethyl) oxazolidin-2-one phosphate]
0.3 µg/mL | 0.3 µg/mL | – | – | C=Cn1nnc(-c2ccc(-c3ccc(N4C[C@H](C(O)CC)OC4=O)cc3F)cn2)n1.O=P(O)(O)O (stereo partly drawn) [compound 123, (R)-3-(3-fluoro-4-(6-(2-vinyl-2H-tetrazol-5-yl)pyridin-3-yl)phenyl)-5-(1-hydroxypropyl) oxazolidin-2-one phosphate]
0.3 µg/mL | 0.3 µg/mL | – | – | CC(O)[C@H]1CN(c2ccc(-c3ccc(-c4nnn(C)n4)nc3)c(F)c2)C(=O)O1.O=P(O)(O)O (stereo partly drawn) [compound 87, (R)-3-(3-fluoro-4-(6-(2-methyl-2H-tetrazol-5-yl)pyridin-3-yl)phenyl)-5-(1-hydroxyethyl) oxazolidin-2-one phosphate]
0.3 µg/mL | 0.3 µg/mL | – | – | Cn1nnc(-c2ccc(-c3ccc(N4C[C@@H](C(O)C5CC5)OC4=O)cc3F)cn2)n1.O=P(O)(O)O (stereo partly drawn) [compound 132, (S)-3-(3-fluoro-4-(6-(2-methyl-2H-tetrazol-5-yl)pyridin-3-yl)phenyl)-5-(1-hydroxy-1-cyclopropylmethyl) oxazolidin-2-one phosphate]
0.3 µg/mL | 0.2 µg/mL | – | – | CCCn1nnc(-c2ccc(-c3ccc(N4C[C@H](C(O)C5CC5)OC4=O)cc3F)cn2)n1.O=P(O)(O)O (stereo partly drawn) [compound 143, (R)-3-(3-fluoro-4-(6-(2-propyl-2H-tetrazol-5-yl)pyridin-3-yl)phenyl)-5-(1-hydroxy-1-cyclopropylmethyl) oxazolidin-2-one phosphate]
0.2 µg/mL | 0.2 µg/mL | – | – | CCCn1nnc(-c2ccc(-c3ccc(N4C[C@@H](C(O)F)OC4=O)cc3F)cn2)n1.O=P(O)(O)O (stereo partly drawn) [compound 110, (S)-3-(3-fluoro-4-(6-(2-propyl-2H-tetrazol-5-yl)pyridin-3-yl)phenyl)-5-(hydroxyfluoromethyl) oxazolidin-2-one phosphate]
0.2 µg/mL | 0.1 µg/mL | – | – | Cn1nnc(-c2ccc(-c3ccc(N4C[C@H](C(O)C5CC5)OC4=O)cc3F)cn2)n1.O=P(O)(O)O (stereo partly drawn) [compound 131, (R)-3-(3-fluoro-4-(6-(2-methyl-2H-tetrazol-5-yl)pyridin-3-yl)phenyl)-5-(1-hydroxy-1-cyclopropylmethyl) oxazolidin-2-one phosphate]
